Measured values published in US6737383B1, “Herbicidal oxadiazolidines” (priority 1999, dated 2004).

Columns and labels:
morningglory = assay: Test B pre/postemergence morningglory; format: in vivo, Ipomoea hederacea
How it was run: (§1)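 Test chemicals in a non-phytotoxic solvent mixture with surfactant were sprayed preemergence onto planted seeds and postemergence onto plants 2 to 18 cm tall (1- to 4-leaf stage). After twelve to sixteen days in a greenhouse, injury was visually rated against untreated controls from 0 (no effect) to 10 (complete control).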

rice = assay: Test B flood test rice; format: in vivo, Oryza sativa
How it was run: (§2)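 Read-out is a visual response score from 0 (no effect) to 10 (complete control), assigned by comparison with untreated controls. Treatment was applied at the 2-leaf stage, and plants stayed in the greenhouse for twelve to sixteen days before scoring.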

wheat = assay: Test B pre/postemergence wheat; format: in vivo, Triticum aestivum
How it was run: as §1

pigweed = assay: Test B pre/postemergence pigweed; format: in vivo, Amaranthus retroflexus
How it was run: as §1

cocklebur = assay: Test B pre/postemergence cocklebur; format: in vivo, Xanthium strumarium
How it was run: as §1

corn = assay: Test B pre/postemergence corn; format: in vivo, Zea mays
How it was run: as §1

velvetleaf = assay: Test B pre/postemergence velvetleaf; format: in vivo, Abutilon theophrasti
How it was run: as §1

duck salad = assay: Test B flood test duck salad; format: in vivo, Heteranthera limosa
How it was run: as §2

wild oat = assay: Test B pre/postemergence wild oat; format: in vivo, Avena fatua
How it was run: as §1

surinam grass = assay: Test B pre/postemergence surinam grass; format: in vivo, Brachiaria decumbens
How it was run: as §1

smallflower flatsedge = assay: Test B flood test smallflower flatsedge; format: in vivo, Cyperus difformis
How it was run: as §2

giant foxtail = assay: Test B pre/postemergence giant foxtail; format: in vivo, Setaria faberii
How it was run: as §1

blackgrass = assay: Test B pre/postemergence blackgrass; format: in vivo, Alopecurus myosuroides
How it was run: as §1

soybean = assay: Test B pre/postemergence soybean; format: in vivo, Glycine max
How it was run: as §1

bamyardgrass = assay: Test B flood test barnyardgrass; format: in vivo, Echinochloa crus-galli
How it was run: as §2

rape = assay: Test B pre/postemergence rape; format: in vivo, Brassica napus
How it was run: as §1

bedstraw = assay: Test B pre/postemergence bedstraw; format: in vivo, Galium aparine; settings: Preemergence
How it was run: as §1

sugar beet = assay: Test B pre/postemergence sugar beet; format: in vivo, Beta vulgaris
How it was run: as §1

purple nutsedge = assay: Test B pre/postemergence purple nutsedge; format: in vivo, Cyperus rotundus
How it was run: as §1

crabgrass = assay: Test B pre/postemergence crabgrass; format: in vivo, Digitaria sanguinalis
How it was run: as §1

[1] = Postemergence, Rate 62 g/ha, scale of 0 to 10, 0 is no effect, 10 is complete control
[2] = Postemergence, Rate 125 g/ha, scale of 0 to 10 where 0 is no effect and 10 is complete control
[3] = Postemergence, Rate 250 g/ha, scale of 0 to 10, 0 is no effect, 10 is complete control
[4] = Postemergence, Rate 500 g/ha, scale of 0 to 10 where 0 is no effect and 10 is complete control
[5] = Preemergence, Rate 62 g/ha, scale 0 to 10 (0 no effect, 10 complete control)
[6] = Preemergence, Rate 125 g/ha, scale of 0 to 10 where 0 is no effect and 10 is complete control
[7] = Preemergence, Rate 500 g/ha, scale of 0 to 10 where 0 is no effect and 10 is complete control
[8] = Rate 62 g/ha, flood test species, Pre-emergence, visual evaluation after twelve to sixteen days
[9] = Rate 125 g/ha, under heading Pre-emergence, flood test species, visual evaluation after twelve to sixteen days
[10] = Rate 250 g/ha, Pre-emergence (flood test species), scale 0 to 10, 0 is no effect, 10 is complete control
[11] = Rate 500 g/ha, Pre-emergence section of Table B, 0 to 10 scale (0 no effect, 10 complete control)

CC(C)N(C(=O)n1oc(=O)n(C(C)CBr)c1=O)c1ccc(F)cc1F (stereo not drawn) [Compound 594]
Morningglory plant response rating (morningglory; [1]): 0
Plant response rating, Morningglory (morningglory; [2]): 2
Morningglory plant response rating (morningglory; [3]): 2
Plant response rating, Morningglory (morningglory; [4]): 7
Morningglory plant response rating (morningglory; [5]): 0
Morningglory plant response rating (morningglory; [6]): 0
Plant response rating, Morningglory (morningglory; [7]): 6
Plant response rating, Rice (0 to 10 scale, 0 is no effect, 10 is complete control) (rice; [8]): 0
Rice plant response rating (0 to 10 scale, 0 is no effect, 10 is complete control) (rice; [9]): 0
Rice plant response rating (rice; [10]): 0
Rice plant response rating (rice; [11]): 0
Plant response rating, Wheat (wheat; [2]): 0
Wheat plant response rating (wheat; [3]): 0
Plant response rating, Wheat (wheat; [4]): 0
Wheat plant response rating (wheat; [5]): 0
Wheat plant response rating (wheat; [6]): 0
Plant response rating, Wheat (wheat; [7]): 2
Plant response rating, Redroot pigweed (pigweed; [2]): 0
Redroot pigweed plant response rating (pigweed; [3]): 3
Plant response rating, Redroot pigweed (pigweed; [4]): 4
Redroot pigweed plant response rating (pigweed; [5]): 0
Redroot pigweed plant response rating (pigweed; [6]): 0
Plant response rating, Redroot pigweed (pigweed; [7]): 10
Cocklebur plant response rating (cocklebur; [1]): 0
Plant response rating, Cocklebur (cocklebur; [2]): 0
Cocklebur plant response rating (cocklebur; [3]): 3
Plant response rating, Cocklebur (cocklebur; [4]): 4
Cocklebur plant response rating (cocklebur; [6]): 0
Cocklebur plant response rating (0 to 10 scale) (cocklebur; Preemergence, Rate 250 g/ha): 0
Plant response rating, Cocklebur (cocklebur; [7]): 2
Corn plant response rating (corn; [1]): 0
Plant response rating, Corn (corn; [2]): 0
Corn plant response rating (corn; [3]): 0
Plant response rating, Corn (corn; [4]): 0
Corn plant response rating (corn; [5]): 0
Corn plant response rating (corn; [6]): 0
Corn plant response rating (0 to 10 scale) (corn; Preemergence, Rate 250 g/ha): 2
Plant response rating, Corn (corn; [7]): 4
Plant response rating, Velvetleaf (velvetleaf; [2]): 3
Velvetleaf plant response rating (velvetleaf; [3]): 3
Plant response rating, Velvetleaf (velvetleaf; [4]): 5
Velvetleaf plant response rating (velvetleaf; [5]): 2
Velvetleaf plant response rating (velvetleaf; [6]): 4
Plant response rating, Velvetleaf (velvetleaf; [7]): 7
Plant response rating, Ducksalad (0 to 10 scale, 0 is no effect, 10 is complete control) (duck salad; [8]): 0
Ducksalad plant response rating (0 to 10 scale, 0 is no effect, 10 is complete control) (duck salad; [9]): 0
Ducksalad plant response rating (duck salad; [10]): 0
Ducksalad plant response rating (duck salad; [11]): 0
Plant response rating, Wild oats (wild oat; [2]): 0
Wild oats plant response rating (wild oat; [3]): 0
Plant response rating, Wild oats (wild oat; [4]): 0
Wild oats plant response rating (wild oat; [5]): 0
Wild oats plant response rating (wild oat; [6]): 0
Plant response rating, Wild oats (wild oat; [7]): 5
B. signalgrass plant response rating (surinam grass; [1]): 0
Plant response rating, B. signalgrass (surinam grass; [2]): 0
B. signalgrass plant response rating (surinam grass; [3]): 2
Plant response rating, B. signalgrass (surinam grass; [4]): 3
B. signalgrass plant response rating (surinam grass; [5]): 3
B. signalgrass plant response rating (surinam grass; [6]): 3
B. signalgrass plant response rating (0 to 10 scale, 0 is no effect, 10 is complete control) (surinam grass; Preemergence, Rate 250 g/ha): 5
B. signalgrass plant response rating (surinam grass; [7]): 7
Plant response rating, S. Flatsedge (0 to 10 scale, 0 is no effect, 10 is complete control) (smallflower flatsedge; [8]): 0
S. Flatsedge plant response rating (0 to 10 scale, 0 is no effect, 10 is complete control) (smallflower flatsedge; [9]): 0
S. Flatsedge plant response rating (smallflower flatsedge; [10]): 0
S. Flatsedge plant response rating (smallflower flatsedge; [11]): 0
Giant foxtail plant response rating (giant foxtail; [1]): 6
Plant response rating, Giant foxtail (giant foxtail; [2]): 7
Giant foxtail plant response rating (giant foxtail; [3]): 7
Plant response rating, Giant foxtail (giant foxtail; [4]): 9
Giant foxtail plant response rating (giant foxtail; [5]): 9
Giant foxtail plant response rating (giant foxtail; [6]): 9
Plant response rating, Giant foxtail (giant foxtail; [7]): 10
Plant response rating, Blackgrass (blackgrass; [2]): 5
Blackgrass plant response rating (blackgrass; [3]): 5
Plant response rating, Blackgrass (blackgrass; [4]): 5
Blackgrass plant response rating (blackgrass; [5]): 5
Blackgrass plant response rating (blackgrass; [6]): 5
Blackgrass plant response rating (0 to 10 scale) (blackgrass; Preemergence, Rate 250 g/ha): 9
Blackgrass plant response rating (blackgrass; [7]): 9
Plant response rating, Soybean (soybean; [2]): 0
Plant response rating, Soybean (soybean; [4]): 4
Soybean plant response rating (soybean; [5]): 0
Soybean plant response rating (soybean; [6]): 0
Plant response rating, Soybean (soybean; [7]): 4
Plant response rating, Barnyardgrass (0 to 10 scale, 0 is no effect, 10 is complete control) (bamyardgrass; [8]): 0
Barnyardgrass plant response rating (0 to 10 scale, 0 is no effect, 10 is complete control) (bamyardgrass; [9]): 0
Barnyardgrass plant response rating (bamyardgrass; [10]): 0
Barnyardgrass plant response rating (bamyardgrass; [11]): 0
Rape plant response rating (rape; [1]): 0
Plant response rating, Rape (rape; [2]): 0
Rape plant response rating (rape; [3]): 0
Plant response rating, Rape (rape; [4]): 0
Rape plant response rating (rape; [5]): 0
Rape plant response rating (rape; [6]): 0
Plant response rating, Rape (rape; [7]): 9
Bedstraw plant response rating (bedstraw; Rate 62 g/ha, scale 0 to 10 (0 no effect, 10 complete control)): 0
Bedstraw plant response rating (bedstraw; Rate 125 g/ha, scale of 0 to 10 where 0 is no effect and 10 is complete control): 0
Bedstraw plant response rating (0 to 10 scale) (bedstraw; Rate 250 g/ha): 2
Bedstraw plant response rating (bedstraw; Rate 500 g/ha, scale of 0 to 10 where 0 is no effect and 10 is complete control): 9
Plant response rating, Sugarbeets (sugar beet; [2]): 5
Sugarbeets plant response rating (sugar beet; [3]): 5
Plant response rating, Sugarbeets (sugar beet; [4]): 5
Sugarbeets plant response rating (sugar beet; [5]): 0
Sugarbeets plant response rating (sugar beet; [6]): 0
Plant response rating, Sugarbeets (sugar beet; [7]): 8
Nutsedge plant response rating (purple nutsedge; [1]): 0
Plant response rating, Nutsedge (purple nutsedge; [2]): 0
Nutsedge plant response rating (purple nutsedge; [3]): 3
Plant response rating, Nutsedge (purple nutsedge; [4]): 3
Nutsedge plant response rating (purple nutsedge; [5]): 0
Nutsedge plant response rating (purple nutsedge; [6]): 0
Plant response rating, Nutsedge (purple nutsedge; [7]): 6
Crabgrass plant response rating (crabgrass; [1]): 5
Plant response rating, Crabgrass (crabgrass; [2]): 7
Crabgrass plant response rating (crabgrass; [3]): 9
Plant response rating, Crabgrass (crabgrass; [4]): 9
Crabgrass plant response rating (crabgrass; [5]): 9
Crabgrass plant response rating (crabgrass; [6]): 9
Plant response rating, Crabgrass (crabgrass; [7]): 9
